By inhibition is commonly meant the share of the control response that was lost under treatment. The term IC50 denotes the concentration needed to halve the response being measured.

A value given as a limit tells only on which side of the number the result lay.

Data on 22 compounds can be found in patent US8519149B2, “Tricyclic compounds as mPGES-1 inhibitors” (Glenmark Pharmaceuticals S.A., priority 2010, dated 2013).

The target of this assay is T1, Recombinant human mPGES-1 (Homo sapiens, UniProt O14684).
T1 sequence (O14684 1-152): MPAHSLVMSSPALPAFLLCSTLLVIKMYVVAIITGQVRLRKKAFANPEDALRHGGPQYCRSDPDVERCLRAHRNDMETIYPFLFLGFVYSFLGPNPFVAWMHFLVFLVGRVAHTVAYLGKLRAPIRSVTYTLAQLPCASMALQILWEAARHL
Kind of assay: In-vitro mPGES-1 enzyme inhibition assay (PGE2 formation from PGH2, HTRF detection). Conditions: for inhibition at 1 µM: read-out: Percentage inhibition at 1 μM; for inhibition at 10 µM: 10 μM test compound, read-out: Percentage inhibition at 10 μM; for IC50: class symbols, selected examples. The class given is biochemical. An excerpt:
In-Vitro Protocol for Screening of mPGES-1 Inhibitors: mPGES-1 (microsomal prostaglandin E synthase-1) is a microsomal enzyme that converts endoperoxide substrate PGH2 (prostaglandin H2) to product PGE2 (prostaglandin E2) by isomerization in the presence of reduced glutathione (GSH). mPGES-1 inhibitors were screened by assessing their ability to inhibit formation of PGE2 from PGH2 in presence of mPGES-1 using anti-PGE2 antibody based detection method. […] Assay was set up using crude microsomal fractions at protein concentration of 40-60 μg/mL. […] Final concentration of DMSO in reaction was 0.5% (v/v). Negative controls comprised of all assay reagents except the enzyme. Positive controls comprised of enzyme reaction in the absence of any inhibitor. […] Reaction was stopped by addition of Stannous chloride (11 mg/ml) and PGE2 levels were measured ([…] et al. […] Inhibition of mPGES-1 enzyme activity was measured using percent of reaction occurring in the positive control. Concentration response curves were plotted using percent inhibition of maximum enzyme reaction. IC50 value was calculated from concentration response curve by nonlinear regression analysis using GraphPad PRISM software.
(In general: In TR-FRET formats the signal depends on donor and acceptor labels being close together.)

Setting [1] is: 1 μM test compound, recombinant human mPGES-1 microsomal fraction.
[2] abbreviates: recombinant human mPGES-1 microsomal fraction.

As to `CC1(C)Cc2c(c(C(=O)NCc3ccccc3C(F)(F)F)cc3nc(Nc4c(Cl)cncc4Cl)[nH]c23)O1` [Example-2, 2-[(3,5-Dichloropyridin-4-yl)amino]-7,7-dimethyl-N-[2-(trifluoromethyl)benzyl]-7,8-dihydro-1H-furo[3,2-e]benzimidazole-5-carboxamide], the IC50 is less than 50 nM. Also, under setting [1], the inhibition at 1 µM came out at 97%. In addition, the inhibition at 10 µM under setting [2] was found to be 99.6%.

Regarding `CCCCCCNC(=O)c1cc2nc(Nc3c(Cl)cncc3Cl)[nH]c2c2c1OC(C)(C)C2` [Example-3, 2-[(3,5-Dichloropyridin-4-yl)amino]-N-hexyl-7,7-dimethyl-7,8-dihydro-1H-furo[3,2-e]benzimidazole-5-carboxamide], the IC50 is less than 50 nM. In addition, the inhibition at 1 µM under setting [1] stood at 99.1%. The inhibition at 10 µM under setting [2] worked out at 99.5%.

Regarding `CCCCCNC(=O)c1cc2nc(Nc3c(Cl)cncc3Cl)[nH]c2c2c1OC(C)(C)C2` [Example-4, 2-[(3,5-Dichloropyridin-4-yl)amino]-7,7-dimethyl-N-pentyl-7,8-dihydro-1H-furo[3,2-e]benzimidazole-5-carboxamide], the IC50 was less than 50 nM. Further, under setting [1], the inhibition at 1 µM turned out to be 94.4%. For the same compound, under setting [2], the inhibition at 10 µM came out at 95%.

Turning to `CC(NC(=O)c1cc2nc(Nc3c(Cl)cncc3Cl)[nH]c2c2c1OC(C)(C)C2)C1CCCCC1` (stereo not shown) [Example-5, N-(1-Cyclohexylethyl)-2-[(3,5-dichloropyridin-4-yl)amino]-7,7-dimethyl-7,8-dihydro-1H-furo[3,2-e]benzimidazole-5-carboxamide], the IC50 was less than 50 nM. Also, the inhibition at 1 µM under setting [1] worked out at 97.7%. Besides, the inhibition at 10 µM under setting [2] amounted to 97.8%.

Consider `C[C@@H](NC(=O)c1cc2nc(Nc3c(Cl)cncc3Cl)[nH]c2c2c1OC(C)(C)C2)C(C)(C)C` [Example-6], for which the IC50 was less than 50 nM. Under setting [1], the inhibition at 1 µM came to 93.4%. Moreover, the inhibition at 10 µM under setting [2] was determined as 95.5%.

Regarding `CC1(C)Cc2c(c(C(=O)NC3CCCCC3)cc3nc(Nc4c(Cl)cccc4Cl)[nH]c23)O1` [Example-7, N-Cyclohexyl-2-[(2,6-dichlorophenyl)amino]-7,7-dimethyl-7,8-dihydro-1H-furo[3,2-e]benzimidazole-5-carboxamide], the IC50 is less than 50 nM. Moreover, the inhibition at 1 µM under setting [1] worked out at 100%. Further, under setting [2], the inhibition at 10 µM was 96.2%.

In the case of `CC1(C)Cc2c(c(C(=O)Nc3ccc(Br)cc3)cc3nc(Nc4c(Cl)cncc4Cl)[nH]c23)O1` [Example-8, N-(4-Bromophenyl)-2-[(3,5-dichloropyridin-4-yl)amino]-7,7-dimethyl-7,8-dihydro-1H-furo[3,2-e]benzimidazole-5-carboxamide], the IC50 was less than 50 nM. The inhibition at 1 µM under setting [1] stood at 92.6%. For the same compound, the inhibition at 10 µM under setting [2] worked out at 90.1%.

In the case of `CCCCCNC(=O)c1cc2nc(Nc3c(Cl)cccc3Cl)[nH]c2c2c1OC(C)(C)C2` [Example-9, 2-[(2,6-Dichlorophenyl)amino]-7,7-dimethyl-N-pentyl-7,8-dihydro-1H-furo[3,2-e]benzimidazole-5-carboxamide], the IC50 was less than 50 nM. In addition, the inhibition at 1 µM under setting [1] was determined as 83%. The inhibition at 10 µM under setting [2] worked out at 83.1%.

Take `CC1(C)Cc2c(c(C(=O)Nc3ccc(C(F)(F)F)cc3)cc3nc(Nc4c(Cl)cncc4Cl)[nH]c23)O1` [Example-10, 2-[(3,5-Dichloropyridin-4-yl)amino]-7,7-dimethyl-N-[4-(trifluoromethyl)phenyl]-7,8-dihydro-1H-furo[3,2-e]benzimidazole-5-carboxamide]: under setting [1], the inhibition at 1 µM worked out at 83.4%. Besides, the inhibition at 10 µM under setting [2] turned out to be 91.8%.

As to `CC1(C)Cc2c(c(C(=O)Nc3ccc(Br)cc3)cc3nc(Nc4c(Cl)cccc4Cl)[nH]c23)O1` [Example-11, N-(4-Bromophenyl)-2-[(2,6-dichlorophenyl)amino]-7,7-dimethyl-7,8-dihydro-1H-furo[3,2-e]benzimidazole-5-carboxamide], the IC50 was less than 50 nM. Also, under “1 μM test compound, recombinant human mPGES-1 microsomal fraction, 1 µM”, the “Percentage inhibition at 1 μM” value was determined as 97.45%. In addition, the inhibition at 1 µM under setting [1] worked out at 100%. Moreover, the inhibition at 10 µM under setting [2] was 100%.

For `Cc1cc2c(o1)c(C(=O)NC1CCCCC1)cc1nc(Nc3c(Cl)cccc3Cl)[nH]c12` [Example-13, N-Cyclohexyl-2-[(2,6-dichlorophenyl)amino]-7-methyl-1H-furo[3,2-e]benzimidazole-5-carboxamide], under setting [1], the inhibition at 1 µM turned out to be 94.2%. Moreover, the inhibition at 10 µM under setting [2] was determined as 97.5%.

For the compound `CC1(C)CCCC(NC(=O)c2cc3nc(Nc4c(Cl)cncc4Cl)[nH]c3c3c2OC(C)(C)C3)C1` (stereo not shown) [Example-14, 2-[(3,5-Dichloropyridin-4-yl)amino]-N-(3,3-dimethylcyclohexyl)-7,7-dimethyl-7,8-dihydro-1H-furo[3,2-e]benzimidazole-5-carboxamide], the IC50 is less than 50 nM. Further, under setting [1], the inhibition at 1 µM is 100%. The inhibition at 10 µM under setting [2] amounted to 100%.

Take `CC1(C)Cc2c(c(C(=O)Nc3ccc(Cl)cc3)cc3nc(Nc4c(Cl)cncc4Cl)[nH]c23)O1` [Example-15, N-(4-Chlorophenyl)-2-[(3,5-dichloropyridin-4-yl)amino]-7,7-dimethyl-7,8-dihydro-1H-furo[3,2-e]benzimidazole-5-carboxamide]: the IC50 is less than 50 nM. Under setting [1], the inhibition at 1 µM was 97.5%. In addition, under setting [2], the inhibition at 10 µM stood at 95.5%.

`Cc1cc2c(o1)c(C(=O)NC1CCCCC1)cc1nc(Nc3ccccc3Cl)[nH]c12` [Example-16, 2-[(2-Chlorophenyl)amino]-N-cyclohexyl-7-methyl-1H-furo[3,2-e]benzimidazole-5-carboxamide]: the inhibition at 1 µM under setting [1] was found to be 73.5%. Moreover, the inhibition at 10 µM under setting [2] came to 94.9%.

Regarding `CC1CC2CC(C1NC(=O)c1cc3nc(Nc4c(Cl)cncc4Cl)[nH]c3c3c1OC(C)(C)C3)C2(C)C` (stereo not shown) [Example-17, 2-[(3,5-Dichloropyridin-4-yl)amino]-7,7-dimethyl-N-(3,6,6-trimethylbicyclo[3.1.1]hept-2-yl)-7,8-dihydro-1H-furo[3,2-e]benzimidazole-5-carboxamide], the IC50 is less than 50 nM. Further, the inhibition at 1 µM under setting [1] turned out to be 98%. Moreover, under setting [2], the inhibition at 10 µM was found to be 96.1%.

Take `CC1(C)Cc2c(c(C(=O)Nc3ccc(Cl)cc3)cc3nc(Nc4ccccc4Cl)[nH]c23)O1` [Example-18, N-(4-Chlorophenyl)-2-[(2-chlorophenyl)amino]-7,7-dimethyl-7,8-dihydro-1H-furo[3,2-e]benzimidazole-5-carboxamide]: the 50% inhibitory concentration (IC50) was less than 50 nM. Moreover, the inhibition at 1 µM under setting [1] is 98.4%. For the same compound, the inhibition at 10 µM under setting [2] came to 99.8%.

For `CC1(C)Cc2c(c(C(=O)NC34CC5CC(CC(C5)C3)C4)cc3nc(Nc4c(Cl)cncc4Cl)[nH]c23)O1` [Example-19, N-Adamantan-1-yl-2-[(3,5-dichloropyridin-4-yl)amino]-7,7-dimethyl-7,8-dihydro-1H-furo[3,2-e]benzimidazole-5-carboxamide], the IC50 is less than 50 nM. Also, the inhibition at 1 µM under setting [1] stood at 97.8%. In addition, the inhibition at 10 µM under setting [2] stood at 98.3%.

Consider `CC1(C)Cc2c(c(C(=O)N3CCOCC3)cc3nc(Nc4c(Cl)cncc4Cl)[nH]c23)O1` [Example-20, {2-[(3,5-Dichloropyridin-4-yl)amino]-7,7-dimethyl-7,8-dihydro-1H-furo[3,2-e]benzimidazol-5-yl}(morpholin-4-yl)methanone], for which the inhibition at 1 µM under setting [1] turned out to be 10.5%. For the same compound, the inhibition at 10 µM under setting [2] worked out at 44.9%.

As for `CC1(C)Cc2c(c(C(=O)NCC3CC3)cc3nc(Nc4c(Cl)cncc4Cl)[nH]c23)O1` [Example-21, N-(Cyclopropylmethyl)-2-[(3,5-dichloropyridin-4-yl)amino]-7,7-dimethyl-7,8-dihydro-1H-furo[3,2-e]benzimidazole-5-carboxamide], the inhibition at 1 µM under setting [1] amounted to 96.8%. Also, under setting [2], the inhibition at 10 µM turned out to be 99.8%.

With `Cc1cc2c(o1)c(C(=O)NCc1ccc(F)cc1)cc1nc(Nc3c(Cl)cncc3Cl)[nH]c12` [Example-22, 2-[(3,5-Dichloropyridin-4-yl)amino]-N-(4-fluorobenzyl)-7-methyl-1H-furo[3,2-e]benzimidazole-5-carboxamide], the inhibition at 1 µM under setting [1] is 85.8%. In addition, the inhibition at 10 µM under setting [2] worked out at 98.8%.

On to `Cc1cc2c(o1)c(C(=O)NC(C)C(C)(C)C)cc1nc(Nc3c(Cl)cncc3Cl)[nH]c12` (stereo not shown) [Example-23, 2-[(3,5-Dichloropyridin-4-yl)amino]-N-(3,3-dimethylbutan-2-yl)-7-methyl-1H-furo[3,2-e]benzimidazole-5-carboxamide], for which the IC50 is less than 50 nM. For the same compound, the inhibition at 1 µM under setting [1] turned out to be 94%. For the same compound, under setting [2], the inhibition at 10 µM was 97.1%.

With `CC1(C)Cc2c(c(C(=O)Nc3ccc(F)cc3)cc3nc(Nc4c(Cl)cncc4Cl)[nH]c23)O1` [Example-24, 2-[(3,5-Dichloropyridin-4-yl)amino]-N-(4-fluorophenyl)-7,7-dimethyl-7,8-dihydro-1H-furo[3,2-e]benzimidazole-5-carboxamide], the IC50 was less than 50 nM. Also, the inhibition at 1 µM under setting [1] was found to be 95.3%. The inhibition at 10 µM under setting [2] turned out to be 95%.
